The structures appear in SMILES notation.

Data set [1] in a line: Cytotoxicity against mouse BW5147 cells expressing H-2 k haplotype, CD3+ and TCRalphabeta assessed as cell proliferation at 1 ug/mL after 24 hrs by [3H]TdR incorporation assay relative to control. The class given is functional. To be noted: read-out: Activity.
Data set [2] can be described thus: Cytotoxicity against mouse BW5147 cells expressing H-2 k haplotype, CD3+ and TCRalphabeta assessed as cell proliferation at 10 ug/mL after 24 hrs by [3H]TdR incorporation assay relative to control. In kind it is functional. To be noted: read-out: Activity.
Data set [3] in a line: Cytotoxicity against mouse BW5147 cells expressing H-2 k haplotype, CD3+ and TCRalphabeta assessed as cell proliferation at 50 ug/mL after 24 hrs by [3H]TdR incorporation assay relative to control. In kind it is functional. The following applies: read-out: Activity.
A short description of data set [4]: Cytotoxicity against mouse BW5147 cells expressing H-2 k haplotype, CD3+ and TCRalphabeta assessed as cell proliferation at 100 ug/mL after 24 hrs by [3H]TdR incorporation assay relative to control. In kind it is functional. To be noted: read-out: Activity.
Data set [5] is described as follows: Lipophilicity, log P of the compound. In kind it is physicochemical. To be noted: octanol/water.

As a reminder, the logP is a log measure of how a compound divides between an organic and an aqueous phase. Regarding `C=CCO[C@@H]1O[C@H](CSc2ncn[nH]2)[C@H]2OC3(CCCC3)O[C@@H]12`, the growth at 1 µg/mL in data set [1] is -7%. Besides, the growth at 10 µg/mL in data set [2] is -9%. In addition, in data set [3], the growth at 50 µg/mL was -29%. For the same compound, the growth at 100 µg/mL in data set [4] is -43%. Moreover, the log partition coefficient (logP) in data set [5] was 1.95.

As for `C=CCO[C@@H]1O[C@H](CSc2ncn[nH]2)[C@@H](O)[C@H]1O`, the growth at 1 µg/mL in data set [1] was -2.4%. Also, the growth at 10 µg/mL in data set [2] is -3%. The growth at 50 µg/mL in data set [3] is -14%. Further, in data set [4], the growth at 100 µg/mL is -38%. Besides, the logP in data set [5] was -2.45.

On to `C=CCO[C@@H]1O[C@H](Cn2c(-c3ccc(Cl)cc3)n[nH]c2=S)[C@H]2OC3(CCCC3)O[C@@H]12`, for which, in data set [1], the growth at 1 µg/mL amounted to 49%. Further, the growth at 10 µg/mL in data set [2] was 44%. Also, the growth at 50 µg/mL in data set [3] was 70%. Besides, the growth at 100 µg/mL in data set [4] was found to be 123%. Also, the log partition coefficient (logP) in data set [5] was found to be 1.91.

`C=CCO[C@@H]1O[C@H](Cn2c(-c3ccc(Cl)cc3)n[nH]c2=S)[C@@H](O)[C@H]1O`: the growth at 1 µg/mL in data set [1] is -1.5%. Also, the growth at 10 µg/mL in data set [2] stood at 6%. Besides, the growth at 50 µg/mL in data set [3] was found to be 4.4%. Besides, the growth at 100 µg/mL in data set [4] came out at 2%. This compound also returned a logP in data set [5] of 0.18.

Consider `C=CCO[C@@H]1O[C@H](Cn2c(SCc3ccccc3)nnc2-c2ccc(Cl)cc2)[C@H]2OC3(CCCC3)O[C@@H]12`, for which the growth at 1 µg/mL in data set [1] was found to be 37%. For the same compound, the growth at 10 µg/mL in data set [2] turned out to be 0%. Also, in data set [3], the growth at 50 µg/mL is -13%. In addition, the lipophilicity (logP) in data set [5] was found to be 1.63.

Turning to `COc1cc(C2=NOC(CO[C@@H]3O[C@H](CSc4ncn[nH]4)[C@H]4OC5(CCCC5)O[C@@H]34)C2)cc(OC)c1OC` (mixture of isomers), the growth at 1 µg/mL in data set [1] was -5%. The growth at 10 µg/mL in data set [2] was -21%. In data set [3], the growth at 50 µg/mL is -24%. For the same compound, the growth at 100 µg/mL in data set [4] was -45%. In addition, the logP in data set [5] came out at 0.9.

Consider `COc1cc(C2=NOC(CO[C@@H]3O[C@H](CSc4ncn[nH]4)[C@@H](O)[C@H]3O)C2)cc(OC)c1OC` (mixture of isomers), for which the growth at 1 µg/mL in data set [1] was determined as 93%. The growth at 10 µg/mL in data set [2] turned out to be 51%. For the same compound, the growth at 50 µg/mL in data set [3] was found to be 43%. For the same compound, the growth at 100 µg/mL in data set [4] was 29%. The compound further came in with a logP in data set [5] of -0.52.

For the compound `COc1cc(C2=NOC(CO[C@@H]3O[C@H](Cn4c(SCc5ccccc5)nnc4-c4ccc(Cl)cc4)[C@H]4OC5(CCCC5)O[C@@H]34)C2)cc(OC)c1OC` (mixture of isomers), in data set [1], the growth at 1 µg/mL came out at 215%. In data set [2], the growth at 10 µg/mL is 60%. Moreover, in data set [3], the growth at 50 µg/mL is -18%. The growth at 100 µg/mL in data set [4] was -45%. Besides, the logP in data set [5] was found to be 1.97.

Take `COc1cc(C2=NOC(CO[C@@H]3O[C@H](Cn4c(SCc5ccccc5)nnc4-c4ccc(Cl)cc4)[C@@H](O)[C@H]3O)C2)cc(OC)c1OC` (mixture of isomers): the growth at 1 µg/mL in data set [1] came out at 143%. Further, in data set [2], the growth at 10 µg/mL worked out at 210%. In addition, in data set [3], the growth at 50 µg/mL is -52%. Moreover, in data set [4], the growth at 100 µg/mL is -67%. This compound also showed a logP in data set [5] of 1.17.

The values above are taken from ChEMBL document CHEMBL1926633, “1,2,4-Triazole D-ribose derivatives: design, synthesis and antitumoral evaluation” (Eur J Med Chem, 2012).
